Measurements as given in patent publication US10765693B2, “Polymorphic compounds and uses thereof” (Astrocyte Pharmaceuticals, Inc., priority 2018, dated 2020).

How the values were obtained:
Type in all cases: physicochemical
[1] = Stability when milled in the presence of water or stirred (slurried) in water; conditions: milled with water; stirred in water between room temperature and 60° C.
Experimental: Milling was performed using a Retsch Mill. About 20 mg of material was placed into a plastic grinding cup followed by 10 μL of water and a stainless-steel ball. The sample was then milled at 100% power for 20 minutes.
To a plastic grinding cup was added 18.4 mg of Compound A and 10 μL of water. A stainless-steel ball was added. The sample was then milled on a Retsch mill at 100% power for 20 minutes at room temperature.
(§1) To a 20 mL glass vial was added 200.0 mg of Compound A and 3.0 mL of water. A magnetic stir bar was added and the vial was capped. The vial was placed on a heating/stirring plate and the slurry was stirred magnetically for 7 days at ambient temperature. The vial was centrifuged for 10 minutes and the mother liquor was decanted. A dry air purge was directed into the vial for 10 minutes to dry the solid. The vial was then placed in a room temperature vacuum desiccator for 2 hours.
as §1, with “plate set at 60° C.” for “plate”, “3 days.” for “7 days at ambient temperature.”

[2] = Relative stability of Form A and Form B slurried in organic/water solvent systems of differing water activity; conditions: mixture of the two forms slurried
Excerpt: If the solvent system has higher than or equal water activity of 0.72, and the two crystalline forms are mixed, the mixture converts to Form A. The solvent systems can be mixture of any organic solvents and organic solvents containing water.
The solvent systems can be mixture of any organic solvents and organic solvents containing water.

[3] = Dynamic Vapour Sorption (DVS) analysis; conditions: for moisture gain observed during the moisture sorption: adsorption cycle 5 to 95% RH; for crystalline form after the DVS analysis (XRPD before/after): sample exposed up to 95% RH and down to 5% RH
Experimental: Dynamic Vapour Sorption (DVS) analysis was carried out using a TA Instruments Q5000 Dynamic Vapor Sorption analyzer. The instrument was calibrated with standard weights and a sodium bromide standard for humidity. Approximately 20 mg of sample was loaded into a metal-coated quartz pan for analysis. The sample was analyzed at 25° C. with a maximum equilibration time of one hour in 10% relative humidity (RH) steps from 5 to 95% RH (adsorption cycle) and from 95 to 5% RH (desorption cycle). The movement from one step to the next occurred either after satisfying the equilibrium criterion of 0.01% weight change or, if the equilibrium criterion was not met, after one hour. The percent weight change values were calculated using Microsoft Excel®. The temperature for the DVS analysis can impact the outcome of the results.

[4] = DVS, 25° C., desorption cycle 95 to 5% RH

Row | Structure (SMILES) | stability when milled in the presence of water or stirred in water [1] | water activity of solvent system at which this form is the more stable of Forms A and B [2] | stability under various humidity conditions ([3]; DVS, 5 to 95% RH) | hygroscopicity based on the DVS data ([3]; DVS, 25° C., 5 to 95% RH) | moisture gain observed during the moisture sorption ([3]; DVS, 25° C.) | moisture loss observed during the desorption cycle [3, 4] | crystalline form after the DVS analysis (XRPD before/after) [3] | moisture loss during the desorption cycle (in words) [3, 4]
1 | CSc1nc(N)c2ncn([C@H]3[C@H](O)[C@H](O)[C@]4(CO)C[C@H]34)c2n1 [Form A of compound A] | stable | ≥ 0.72 | stable under various humidity conditions | moderately hygroscopic | approximately 9.3% | about 2% | remained unchanged | –
2 | CSc1nc(N)c2ncn([C@H]3[C@H](O)[C@H](O)[C@]4(CO)C[C@H]34)c2n1 [Form B of compound A] | – | less than or equal to 0.63 | – | moderately hygroscopic | approximately 6.4% | – | remained unchanged | lost all of the moisture gain
